Measurements as given in US5556744A, “Methods and compositions for diagnosing and treating certain HIV infected patients” (The Trustees of the University of Pennsylvania, priority 1994, dated 1996).

Test system: maternal HIV+ sera (antibodies)
Test: RIA / ELISA binding of maternal HIV+ sera to gp120 and gp41 peptides (Example 3)
Design: species or system human
Method: Radioimmunoassay (RIA) and enzyme-linked immunosorbent assay (ELISA) were performed by standard methodologies [E. Engvall, Meth. Immunol., 70:419-439 (1980); S. K. Pierce et al, J. Exp. Med., 144:1254-1262 (1976)]. Peptides were dissolved in 0.05M carbonate-bicarbonate buffer (pH 9.6) at a concentration of 10 μg/ml. Fifty μl (500 ng) of the peptides were immobilized in 96 well polyvinylchloride plates (Dynatech Laboratories, Inc.) overnight at 4° C. Plates were washed and non-specific sites were blocked with PBS containing 1% BSA overnight at 4° C.
Dilutions of HIV positive maternal sera were made in blocking buffer at dilutions of 1:50 and 1:500 and incubated in peptide coated plates overnight at 4° C. Plates were washed with PBS and incubated with 75,000 cpm of ^125 I-labelled goat anti-human IgG. The antibody was iodinated by a chloramine T method [W. V. Williams et al, Proc. Natl. Acad. Sci. USA, 85:6488-6492 (1988)]. Plates were washed, dried and counted in a gamma counter to measure specific binding. Normal human serum (i.e., HIV seronegative) was used as a control.
Alternatively, ELISA assays were performed in polystyrene plates (Dynatech Laboratories, Inc) in which 0.05% Tween 20 (Sigma Chemical Co.) was included in the washing, blocking and dilution buffers. The secondary antibody used was goat […] Ig conjugated to horseradish peroxidase (HRP) (Sigma Chemical Co). The substrate used for color development was 3,3',5,5' tetramethyl-benzidine dihydrochloride (TMB) (Sigma Chemical Co). Absorbance of samples was measured in a Dynatech MR5000 (Dynatech Laboratories, Inc.) plate reader and expressed as an optical density at wavelength of 450 nm (OD450).
The following key is used for the designation of specific binding of the maternal sera samples to the peptides: The minus sign, -, is equivalent to the specific OD450 or cpm of sera sample binding to peptide divided by the specific OD450 or cpm of NHS sample binding to peptide, which value is less than 2. The plus sign, +, is equivalent to the specific OD450 or cpm of sera sample binding to peptide divided by the specific OD450 or cpm of NHS sample binding to peptide, which value is between 2 to 3.
Specific binding is defined as the difference between the OD450 or cpm of sera to wells with peptide and the OD450 or cpm of sera to wells without peptide.
Comparisons of number of peptides which bound maternal serum samples were made between the transmission group and the nontransmission group. The data was analyzed using the unpaired student's test. For the determination of differences in the binding of specific peptides between transmission and non-transmission groups, the Spearman's rank-order correlation test was performed.

[1] = Serum No. 1, Non-Transmission Group
[2] = Serum No. 2, Non-Transmission Group
[3] = Serum No. 3, Non-Transmission Group
[4] = Serum No. 4, Transmission Group
[5] = Serum No. 5, Transmission Group
[6] = Serum No. 6, Non-Transmission Group
[7] = Serum No. 7, Non-Transmission Group
[8] = Serum No. 8, Non-Transmission Group
[9] = Serum No. 9, Non-Transmission Group
[10] = Serum No. 10, Transmission Group
[11] = Serum No. 11, Non-Transmission Group
[12] = Serum No. 12, Non-Transmission Group
[13] = Serum No. 13, Transmission Group
[14] = Serum No. 14, Transmission Group
[15] = Serum No. 15, Transmission Group
[16] = Serum No. 16, Non-Transmission Group
[17] = Serum No. 17, Non-Transmission Group
[18] = Serum No. 18, Non-Transmission Group
[19] = Serum No. 19, Transmission Group
[20] = Serum No. 20, Non-Transmission Group

Sequence | Binding of maternal HIV+ serum to peptide (sera/NHS ratio) [1] | Binding of maternal HIV+ serum to peptide (sera/NHS ratio) [2] | Binding of maternal HIV+ serum to peptide (sera/NHS ratio) [3] | Binding of maternal HIV+ serum to peptide (sera/NHS ratio) [4] | Binding of maternal HIV+ serum to peptide (sera/NHS ratio) [5] | Binding of maternal HIV+ serum to peptide (sera/NHS ratio) [6] | Binding of maternal HIV+ serum to peptide (sera/NHS ratio) [7] | Binding of maternal HIV+ serum to peptide (sera/NHS ratio) [8] | Binding of maternal HIV+ serum to peptide (sera/NHS ratio) [9] | Binding of maternal HIV+ serum to peptide (sera/NHS ratio) [10] | Binding of maternal HIV+ serum to peptide (sera/NHS ratio) [11] | Binding of maternal HIV+ serum to peptide (sera/NHS ratio) [12] | Binding of maternal HIV+ serum to peptide (sera/NHS ratio) [13] | Binding of maternal HIV+ serum to peptide (sera/NHS ratio) [14] | Binding of maternal HIV+ serum to peptide (sera/NHS ratio) [15] | Binding of maternal HIV+ serum to peptide (sera/NHS ratio) [16] | Binding of maternal HIV+ serum to peptide (sera/NHS ratio) [17] | Binding of maternal HIV+ serum to peptide (sera/NHS ratio) [18] | Binding of maternal HIV+ serum to peptide (sera/NHS ratio) [19] | Binding of maternal HIV+ serum to peptide (sera/NHS ratio) [20] | also measured
CTRPNNNTRKSIRIQ [Peptide 106] | - (specific OD450 or cpm of sera sample binding to peptide divided by the specific OD450 or cpm of NHS sample binding to peptide, which value is less than 2) | - (specific OD450 or cpm of sera sample binding to peptide divided by the specific OD450 or cpm of NHS sample binding to peptide, which value is less than 2) | - (specific OD450 or cpm of sera sample binding to peptide divided by the specific OD450 or cpm of NHS sample binding to peptide, which value is less than 2) | - (specific OD450 or cpm of sera sample binding to peptide divided by the specific OD450 or cpm of NHS sample binding to peptide, which value is less than 2) | - (specific OD450 or cpm of sera sample binding to peptide divided by the specific OD450 or cpm of NHS sample binding to peptide, which value is less than 2) | - (specific OD450 or cpm of sera sample binding to peptide divided by the specific OD450 or cpm of NHS sample binding to peptide, which value is less than 2) | - (specific OD450 or cpm of sera sample binding to peptide divided by the specific OD450 or cpm of NHS sample binding to peptide, which value is less than 2) | - (specific OD450 or cpm of sera sample binding to peptide divided by the specific OD450 or cpm of NHS sample binding to peptide, which value is less than 2) | - (specific OD450 or cpm of sera sample binding to peptide divided by the specific OD450 or cpm of NHS sample binding to peptide, which value is less than 2) | - (specific OD450 or cpm of sera sample binding to peptide divided by the specific OD450 or cpm of NHS sample binding to peptide, which value is less than 2) | - (specific OD450 or cpm of sera sample binding to peptide divided by the specific OD450 or cpm of NHS sample binding to peptide, which value is less than 2) | - (specific OD450 or cpm of sera sample binding to peptide divided by the specific OD450 or cpm of NHS sample binding to peptide, which value is less than 2) | ++ (which value is greater than 3) | ++ (which value is greater than 3) | ++ (which value is greater than 3) | + (which value is between 2 to 3) | ++ (which value is greater than 3) | - (specific OD450 or cpm of sera sample binding to peptide divided by the specific OD450 or cpm of NHS sample binding to peptide, which value is less than 2) | - (specific OD450 or cpm of sera sample binding to peptide divided by the specific OD450 or cpm of NHS sample binding to peptide, which value is less than 2) | + (which value is between 2 to 3) | Percentage of sera samples demonstrating binding to peptide, non-transmitter (Non-transmitter group, n = 13): 23.0%; Percentage of sera samples demonstrating binding to peptide, transmitter (Transmitter / transmission group, n = 7): 42.9%; Percent of the maternal serum samples that bound to the peptide (all 20 samples): 30%
GYSPLSFQTHPIPR [Peptide 128] | - (specific OD450 or cpm of sera sample binding to peptide divided by the specific OD450 or cpm of NHS sample binding to peptide, which value is less than 2) | - (specific OD450 or cpm of sera sample binding to peptide divided by the specific OD450 or cpm of NHS sample binding to peptide, which value is less than 2) | - (specific OD450 or cpm of sera sample binding to peptide divided by the specific OD450 or cpm of NHS sample binding to peptide, which value is less than 2) | - (specific OD450 or cpm of sera sample binding to peptide divided by the specific OD450 or cpm of NHS sample binding to peptide, which value is less than 2) | - (specific OD450 or cpm of sera sample binding to peptide divided by the specific OD450 or cpm of NHS sample binding to peptide, which value is less than 2) | - (specific OD450 or cpm of sera sample binding to peptide divided by the specific OD450 or cpm of NHS sample binding to peptide, which value is less than 2) | - (specific OD450 or cpm of sera sample binding to peptide divided by the specific OD450 or cpm of NHS sample binding to peptide, which value is less than 2) | - (specific OD450 or cpm of sera sample binding to peptide divided by the specific OD450 or cpm of NHS sample binding to peptide, which value is less than 2) | - (specific OD450 or cpm of sera sample binding to peptide divided by the specific OD450 or cpm of NHS sample binding to peptide, which value is less than 2) | - (specific OD450 or cpm of sera sample binding to peptide divided by the specific OD450 or cpm of NHS sample binding to peptide, which value is less than 2) | - (specific OD450 or cpm of sera sample binding to peptide divided by the specific OD450 or cpm of NHS sample binding to peptide, which value is less than 2) | - (specific OD450 or cpm of sera sample binding to peptide divided by the specific OD450 or cpm of NHS sample binding to peptide, which value is less than 2) | - (specific OD450 or cpm of sera sample binding to peptide divided by the specific OD450 or cpm of NHS sample binding to peptide, which value is less than 2) | - (specific OD450 or cpm of sera sample binding to peptide divided by the specific OD450 or cpm of NHS sample binding to peptide, which value is less than 2) | - (specific OD450 or cpm of sera sample binding to peptide divided by the specific OD450 or cpm of NHS sample binding to peptide, which value is less than 2) | - (specific OD450 or cpm of sera sample binding to peptide divided by the specific OD450 or cpm of NHS sample binding to peptide, which value is less than 2) | - (specific OD450 or cpm of sera sample binding to peptide divided by the specific OD450 or cpm of NHS sample binding to peptide, which value is less than 2) | - (specific OD450 or cpm of sera sample binding to peptide divided by the specific OD450 or cpm of NHS sample binding to peptide, which value is less than 2) | - (specific OD450 or cpm of sera sample binding to peptide divided by the specific OD450 or cpm of NHS sample binding to peptide, which value is less than 2) | - (specific OD450 or cpm of sera sample binding to peptide divided by the specific OD450 or cpm of NHS sample binding to peptide, which value is less than 2) | –
